Reference: patent US20260217652A1, “PHENYL-SUBSTITUTED HETEROARYL COMPOUND AND PHARMACEUTICAL COMPOSITION COMPRISING SAME, PREPARATION METHOD THEREFOR AND USE THEREOF” (SHANGHAI MEIYUE BIOTECH DEVELOPMENT CO., LTD., priority 2023, published 2026)
pIC50: −log10 of the molar value. Read-outs that look alike come from different tables or passages of the source.

Experiments:
[1] = target: T1, p38 MAPK/ATF2 (Homo sapiens, UniProt Q16539); assay: In vitro activity assay of p38 MAPK/ATF2 (HTRF); assay type: biochemical; settings: p38α, Human ATF2 Protein, ATP; 35 min at 20° C.
T1 construct: purchased Carna Biosciences (p38α); Sino Biological (ATF2) 04-152; 11599-H20B
Protocol: The inhibitory effect of the compound on p38a-catalyzed ATF2 was evaluated by the HTRF method. The test compound was dissolved in DMSO to obtain a 10 mM stock solution and stored at −20° C. for future use. The initial concentration of the compound was 10 μM, with 0.25% DMSO, 5-fold serial dilution, 8 concentrations, and duplicate wells. The reaction buffer, consisting of 40 mM Tris pH 7.5, 20 mM MgCl2, 0.1 mg/mL BSA, and 50 μM DTT, was used to prepare 3.5×p38α (MAPK14, Carna Biosciences, 04-152) protein working solution, 3.5×Human ATF2 Protein (Sino Biological, 11599-H20B) working solution, and 3.5×ATP working solution. The reaction was terminated with 10 mM EDTA. The final 14 μL reaction system was performed in a 96-well plate (cisbio, 66PL96025), containing 0.29 ng/μL p38a, […] Human ATF2 Protein, and 25 µM ATP. After reacting at 20° C. for 35 min, the pre-prepared antibody solution (cibio, 63ADK015PEG, Phospho-ATF2 Eu Cryptate antibody, Phospho-ATF2 d2 antibody, diluted 40-fold with Detection buffer) was added to each well and incubated overnight at room temperature. The samples were then measured using a microplate reader (HTRF compatible reader). The concentration-effect curve was fitted using GraphPad Prism 8 software, and the compound concentration resulting in 50% inhibition, IC50, was calculated.

[2] = Pharmacokinetic evaluation in mice; assay type: in vivo; settings: mouse, plasma; for AUC(0-t): read-out: Area under curve AUC0-24 h; for half-life: read-out: Half-life T1/2 (converted)
Protocol: The compound was weighed and dissolved in a mixed solvent of DMAC: Solutol: PBS (1:1:8. After intravenous/gastric administration to mice, whole blood ([…]) was collected at 0.083, 0.25, 0.5, 1, 2, 4, 7, and 24 hours. The samples were anticoagulated with EDTA-K2, immediately centrifuged at 4000 rpm for 5 minutes at 4° C., and the supernatant was frozen in a −80° C. refrigerator. Plasma sample processing: The samples were precipitated with an internal standard-containing CH3CN precipitant, followed by centrifugation at 12700 rpm for 10 min. The supernatant was collected and analyzed by LC-MS/MS (AB Triple Quard 5500) to obtain the plasma drug concentration. The parameters were calculated using a non-compartmental model in Winnolin version 8.1.

[3] = intravenous injection group 1 mg/kg
[4] = po, intragastric administration group 5 mg/kg

`CNC(=O)c1cccc(-c2ncc(C)c(-n3c(C)cc(OCc4ncc(F)cc4F)c(Cl)c3=O)c2F)c1` [Compound 31-P1] gave a pIC50 [1] of 5.73, an AUC(0-t) [2, 3] of 1360 ng·h/mL and a clearance ([2]; intravenous injection group 1 mg/kg, read-out: Clearance CL (converted)) of 12.3 mL/min/kg. For the same compound, the half-life [2, 3] was 0.57 h, the C0 ([2]; intravenous injection group 1 mg/kg, read-out: Initial concentration C0) was 2150 ng/mL and the Vd ([2]; intravenous injection group 1 mg/kg, read-out: Volume of distribution Vd) was 0.47 L/kg. For the same compound, the AUC(0-t) [2, 4] was 2070 ng·h/mL, the bioavailability ([2]; po, intragastric administration group 5 mg/kg, read-out: Bioavailability F %) was 30.5% and the half-life [2, 4] was 3.24 h. For the same compound, the Cmax ([2]; po, intragastric administration group 5 mg/kg, read-out: Maximum concentration Cmax) was 979 ng/mL.
